The record followed here is patent US5373015A, “Fused pyridine derivatives useful as angiotensin II antagonists” (Imperial Chemical Industries PLC, priority 1991, dated 1994).

Molecules are shown by their SMILES.

The target of the assay is T1, AII receptors (Cavia porcellus, UniProt Q9WV26).
T1 construct: from tissue; host or cells: guinea pig adrenal gland, cell surface membrane fraction
T1 sequence (Q9WV26 1-359): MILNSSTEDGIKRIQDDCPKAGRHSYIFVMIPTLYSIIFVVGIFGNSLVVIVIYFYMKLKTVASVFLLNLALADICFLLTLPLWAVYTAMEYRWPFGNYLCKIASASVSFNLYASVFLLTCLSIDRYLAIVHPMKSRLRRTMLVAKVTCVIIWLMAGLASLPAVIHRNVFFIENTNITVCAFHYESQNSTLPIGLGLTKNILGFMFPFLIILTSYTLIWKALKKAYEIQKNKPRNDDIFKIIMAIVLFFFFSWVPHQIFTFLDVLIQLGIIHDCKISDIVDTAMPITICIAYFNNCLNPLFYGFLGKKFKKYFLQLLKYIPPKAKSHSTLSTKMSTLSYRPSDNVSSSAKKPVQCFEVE
Kind of assay: Test A: displacement of radiolabelled AII binding from guinea pig adrenal gland membrane fraction. The settings on record: guinea pig adrenal gland membranes; read-out: IC50 (concentration for 50% displacement of radiolabelled AII binding). The method, then: This in vitro procedure involves the incubation of the test compound initially at a concentration of 100 micromolar (or less) in a buffered mixture containing fixed concentrations of radiolabelled AII and a cell surface membrane fraction prepared from a suitable angiotensin target tissue. In this test, the source of cell surface membranes is the guinea pig adrenal gland which is well known to respond to AII. Interaction of the radiolabelled AII with its receptors (assessed as radiolabel bound to the particulate membrane fraction following removal of unbound radiolabel by a rapid filtration procedure such as is standard in such studies) is antagonized by compounds which also bind to the membrane receptor sites and the degree of antagonism (observed in the test as displacement of membrane-bound radioactivity) is determined readily by comparing the receptor-bound radioactivity in the presence of the test compound at the specified test concentration with a control value determined in the absence of the test compound. Using this procedure compounds showing at least 50% displacement of radiolabelled AII binding at a concentration of 10^4 M are retested at lower concentrations to determine their potency. […]

With `CCc1cc2c(ccc(=O)n2Cc2ccc(OC(C(=O)O)c3ccccc3)cc2)c(CC)n1` (stereo not shown) [Example 2], the IC50 was found to be 0.27 µM.
